Measurements as given in patent US20200216439A1, “HETERO-1,5,6,7-TETRAHYDRO-4H-INDOL-4-ONES” (BAYER PHARMA AKTIENGESELLSCHAFT, priority 2015, published 2020).

molecular target: T1, catalytic domain of human Bub1 (amino acids 704-1085) (Homo sapiens, UniProt O43683); assay: Bub1 kinase assay (TR-FRET); assay type: biochemical; conditions: TR-FRET; ATP 10 μM, peptide substrate 1 μM; 60 min at 22° C.; average or median if tested more than once; read-out: Inhibition of Bub1 kinase IC50
T1 construct: catalytic domain of human Bub1 (amino acids 704-1085); His6 (N); made in house; host or cells: Hi5 insect cells
Method in brief: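 Human Bub1 catalytic domain (704-1085, His6-tagged, Hi5-expressed, ~200 ng/mL) preincubated with compound 15 min at 22 °C, then reacted 60 min at 22 °C with 10 μM ATP and 1 μM biotinylated peptide substrate, pH 7.5. EDTA stop; TR-FRET 665/620 ratio; IC50 from 4-parameter fit, 11 concentrations in duplicate.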

T1 sequence (O43683 704-1085): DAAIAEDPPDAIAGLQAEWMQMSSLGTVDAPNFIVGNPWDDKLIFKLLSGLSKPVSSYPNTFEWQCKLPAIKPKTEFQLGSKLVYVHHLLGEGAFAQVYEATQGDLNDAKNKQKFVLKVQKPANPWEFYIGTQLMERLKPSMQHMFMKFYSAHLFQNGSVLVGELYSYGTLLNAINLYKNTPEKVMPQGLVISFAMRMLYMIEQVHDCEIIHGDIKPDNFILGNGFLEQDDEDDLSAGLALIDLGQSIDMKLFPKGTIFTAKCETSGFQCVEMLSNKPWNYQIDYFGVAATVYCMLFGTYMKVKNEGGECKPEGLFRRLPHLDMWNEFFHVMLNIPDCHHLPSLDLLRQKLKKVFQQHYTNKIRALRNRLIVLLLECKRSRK

Row | IC50 [nM] | SMILES
1 | 7 | COc1cnccc1-c1[nH]c2c(c1Nc1ccccc1)C(=O)CN(S(=O)(=O)C(C)C)C2 [Example 109, 2-(3-Methoxypyridin-4-yl)-3-(phenylamino)-6-(propan-2-ylsulfonyl)-1,5,6,7-tetrahydro-4H-pyrrolo[2,3-c]pyridin-4-one]
2 | 7 | COc1cnccc1-c1[nH]c2c(c1Nc1ccccc1)C(=O)CN(S(=O)(=O)CCC(F)(F)F)C2 [Example 111, 2-(3-Methoxypyridin-4-yl)-3-(phenylamino)-6-[(3,3,3-trifluoropropyl)sulfonyl]-1,5,6,7-tetrahydro-4H-pyrrolo[2,3-c]pyridin-4-one]
3 | 9 | CC(=O)Nc1cc(-c2[nH]c3c(c2Nc2ccccc2)C(=O)CN(C(C)=O)C3)ccn1 [Example 112, N-{4-[6-Acetyl-4-oxo-3-(phenylamino)-4,5,6,7-tetrahydro-1H-pyrrolo[2,3-c]pyridin-2-yl]pyridin-2-yl}acetamide]
4 | 6 | CC(C)(C)OC(=O)N1CC(=O)c2c([nH]c(-c3ccnc(NC(=O)c4cncs4)c3)c2Nc2ccccc2)C1 [Example 122, tert-Butyl 4-oxo-3-(phenylamino)-2-{2-[(1,3-thiazol-5-ylcarbonyl)amino]pyridin-4-yl}-1,4,5,7-tetrahydro-6H-pyrrolo[2,3-c]pyridine-6-carboxylate]
5 | 29 | CC(=O)Nc1cc(-c2[nH]c3c(c2Nc2ccccc2)C(=O)CN(C(=O)N2CCN(C)CC2)C3)ccn1 [Example 127, N-(4-{3-Anilino-6-[(4-methylpiperazin-1-yl)carbonyl]-4-oxo-4,5,6,7-tetrahydro-1H-pyrrolo[2,3-c]pyridin-2-yl}pyridin-2-yl)acetamide]
6 | 8 | CC(C)(C)OC(=O)N1CC(=O)c2c([nH]c(-c3ccnc(NC(=O)[C@H]4C[C@H]4F)c3)c2Nc2ccccc2)C1 [Example 128, tert-Butyl 3-anilino-2-[2-({[(1R,2R)-2-fluorocyclopropyl]carbonyl}amino)pyridin-4-yl]-4-oxo-1,4,5,7-tetrahydro-6H-pyrrolo[2,3-c]pyridine-6-carboxylate]
7 | 662 | CC(C)(F)C(=O)Nc1cc(-c2[nH]c3c(c2Nc2ccccc2)C(=O)CNC3)ccn1 [Example 130, N-[4-(3-Anilino-4-oxo-4,5,6,7-tetrahydro-1H-pyrrolo[2,3-c]pyridin-2-yl)pyridin-2-yl]-2-fluoro-2-methylpropanamide]

More lines, now with the values behind:

Row | SMILES | IC50 [nM]
8 | COc1cnccc1-c1[nH]c2c(c1Nc1ccccc1)C(=O)CN(C(=O)C(C)(C)C)C2 [Example 106, 6-(2,2-Dimethylpropanoyl)-2(3-methoxypyridin-4-yl)-3-(phenylamino)-1,5,6,7-tetrahydro-4H-pyrrolo[2,3-c]pyridin-4-one] | 6
9 | COc1cnccc1-c1[nH]c2c(c1Nc1ccccc1)C(=O)CN(S(C)(=O)=O)C2 [Example 107, 2-(3-Methoxypyridin-4-yl)-6(methylsulfonyl)-3-(phenylamino)-1,5,6,7-tetrahydro-4H-pyrrolo[2,3-c]pyridin-4-one] | 6
10 | COc1cnccc1-c1[nH]c2c(c1Nc1ccccc1)C(=O)CN(C(=O)C1CC1)C2 [Example 108, 6-(Cyclopropylcarbonyl)-2-(3-methoxypyridin-4-yl)-3-(phenylamino)-1,5,6,7-tetrahydro-4H-pyrrolo[2,3-c]pyridin-4-one] | 8
11 | COc1cnccc1-c1[nH]c2c(c1Nc1ccccc1)C(=O)CN(S(=O)(=O)C(F)F)C2 [Example 110, 6-[(Difluoromethyl)sulfonyl]-2-(3-methoxypyridin-4-yl)-3-(phenylamino)-1,5,6,7-tetrahydro-4H-pyrrolo[2,3-c]pyridin-4-one] | 6
12 | CC(=O)Nc1cc(-c2[nH]c3c(c2Nc2ccccc2)C(=O)CN(C(=O)c2cnc[nH]2)C3)ccn1 [Example 113, N-{4-[6-(1H-Imidazol-5-ylcarbonyl)-4-oxo-3-(phenylamino)-4,5,6,7-tetrahydro-1H-pyrrolo[2,3-c]pyridin-2-yl]pyridin-2-yl}acetamide] | 34
13 | CC(=O)Nc1cc(-c2[nH]c3c(c2Nc2ccccc2)C(=O)CN(C(=O)c2ccccn2)C3)ccn1 [Example 114, N-{4-[4-Oxo-3-(phenylamino)-6-(pyridin-2-ylcarbonyl)-4,5,6,7-tetrahydro-1H-pyrrolo[2,3-c]pyridin-2-yl]pyridin-2-yl}acetamide] | 63
14 | CC(=O)Nc1cc(-c2[nH]c3c(c2Nc2ccccc2)C(=O)CN(C(=O)c2cccnc2)C3)ccn1 [Example 115, N-{4-[4-Oxo-3-(phenylamino)-6-(pyridin-3-ylcarbonyl)-4,5,6,7-tetrahydro-1H-pyrrolo[2,3-c]pyridin-2-yl]pyridin-2-yl}acetamide] | 45
15 | CC(=O)Nc1cc(-c2[nH]c3c(c2Nc2ccccc2)C(=O)CN(C(=O)c2ccncc2)C3)ccn1 [Example 116, N-{4-[4-Oxo-3-(phenylamino)-6-(pyridin-4-ylcarbonyl)-4,5,6,7-tetrahydro-1H-pyrrolo[2,3-c]pyridin-2-yl]pyridin-2-yl}acetamide] | 26
16 | CC(=O)Nc1cc(-c2[nH]c3c(c2Nc2ccccc2)C(=O)CN(S(=O)(=O)c2cnc[nH]2)C3)ccn1 [Example 117, N-{4-[6-(1H-Imidazol-5-ylsulfonyl)-4-oxo-3-(phenylamino)-4,5,6,7-tetrahydro-1H-pyrrolo[2,3-c]pyridin-2-yl]pyridin-2-yl}acetamide] | 9
17 | CC(=O)Nc1cc(-c2[nH]c3c(c2Nc2ccccc2)C(=O)CN(C(=O)c2cn(C)cn2)C3)ccn1 [Example 118, N-(4-{6-[(1-Methyl-1H-imidazol-4-yl)carbonyl]-4-oxo-3-(phenylamino)-4,5,6,7-tetrahydro-1H-pyrrolo[2,3-c]pyridin-2-yl}pyridin-2-yl)acetamide] | 149
18 | CC(C)(C)OC(=O)N1CC(=O)c2c([nH]c(-c3ccnc(NC(=O)C(C)(C)F)c3)c2Nc2ccccc2)C1 [Example 119, tert-Butyl 2-{2-[(2-fluoro-2-methylpropanoyl)amino]pyridin-4-yl}-4-oxo-3-(phenylamino)-1,4,5,7-tetrahydro-6H-pyrrolo[2,3-c]pyridine-6-carboxylate] | 42
19 | O=C1CN(S(=O)(=O)CCO)Cc2[nH]c(-c3ccncc3)c(Nc3ccccc3)c21 [Example 123, 3-Anilino-6-[(2-hydroxyethyl)sulfonyl]-2-(pyridin-4-yl)-1,5,6,7-tetrahydro-4H-pyrrolo[2,3-c]pyridin-4-one] | 3
20 | CC(=O)Nc1cc(-c2[nH]c3c(c2Nc2ccccc2)C(=O)CN(C(=O)N(C)C)C3)ccn1 [Example 124, 2-(2-Acetamidopyridin-4-yl)-3-anilino-N,N-dimethyl-4-oxo-1,4,5,7-tetrahydro-6H-pyrrolo[2,3-c]pyridine-6-carboxamide] | 4
21 | CC(=O)Nc1cc(-c2[nH]c3c(c2Nc2ccccc2)C(=O)CN(C(=O)N2CCOCC2)C3)ccn1 [Example 125, N-{4-[3-Anilino-6-(morpholin-4-ylcarbonyl)-4-oxo-4,5,6,7-tetrahydro-1H-pyrrolo[2,3-c]pyridin-2-yl]pyridin-2-yl}acetamide] | 10
22 | CC(=O)Nc1cc(-c2[nH]c3c(c2Nc2ccccc2)C(=O)CN(C(=O)N2CCCC2)C3)ccn1 [Example 126, N-{4-[3-Anilino-4-oxo-6-(pyrrolidin-1-ylcarbonyl)-4,5,6,7-tetrahydro-1H-pyrrolo[2,3-c]pyridin-2-yl]pyridin-2-yl}acetamide] | 7
